Reference: ChEMBL document CHEMBL1240427, “Chemistry around imidazopyrazine and ibuprofen: discovery of novel fatty acid amide hydrolase (FAAH) inhibitors” (Eur J Med Chem, 2010)

Legend:
Caco-2 [1] = assay: Effect in human Caco-2 cells assessed as IL-1-beta-induced IL8 production relative to control at 50 uM after 24 hrs by ELISA; details: Caco-2, 24 h
Caco-2 [2] = assay: Effect in human Caco-2 cells assessed as IL-1-beta-induced IL8 production relative to control at 5 uM after 24 hrs by ELISA; details: Caco-2, 24 h

Structure (SMILES) | level, % of control at 50 µM (Caco-2 [1]) [%] | level, % of control at 5 µM (Caco-2 [2]) [%]
CC(C)Cc1ccc(C(C)C(=O)n2nnc3ccccc32)cc1 (configuration not stated) | 76 | –
CC(C)Cc1ccc(C(C)C(=O)/C=N/O)cc1 (configuration not stated) | 290 | –
CON(C)C(=O)C(C)c1ccc(CC(C)C)cc1 (configuration not stated) | 55 | –
N=c1c(-c2ccccc2)nc2c[nH]c(-c3ccc(O)cc3)cn1-2 | 56 | 75
Oc1ccc(-c2cn3c(O)c(-c4ccccc4)nc3cn2)cc1 | 65 | –
CC(C)Cc1ccc(C(C)C(=O)CCl)cc1 (configuration not stated) | 70 | –
